pKi: −log10 of the molar value.
Columns and labels:
[1] = target: Cannabinoid receptor 1 (Homo sapiens, UniProt P21554); assay: Agonist activity at human CB1 receptor
[2] = target: Cannabinoid receptor 2 (Homo sapiens, UniProt P34972); assay: Agonist activity at human CB2 receptor
[3] = organism: Homo sapiens; assay: Selectivity ratio of Ki for human CB1 receptor to Ki for human CB2 receptor

Chain of Cannabinoid receptor 1 (P21554 whole entry): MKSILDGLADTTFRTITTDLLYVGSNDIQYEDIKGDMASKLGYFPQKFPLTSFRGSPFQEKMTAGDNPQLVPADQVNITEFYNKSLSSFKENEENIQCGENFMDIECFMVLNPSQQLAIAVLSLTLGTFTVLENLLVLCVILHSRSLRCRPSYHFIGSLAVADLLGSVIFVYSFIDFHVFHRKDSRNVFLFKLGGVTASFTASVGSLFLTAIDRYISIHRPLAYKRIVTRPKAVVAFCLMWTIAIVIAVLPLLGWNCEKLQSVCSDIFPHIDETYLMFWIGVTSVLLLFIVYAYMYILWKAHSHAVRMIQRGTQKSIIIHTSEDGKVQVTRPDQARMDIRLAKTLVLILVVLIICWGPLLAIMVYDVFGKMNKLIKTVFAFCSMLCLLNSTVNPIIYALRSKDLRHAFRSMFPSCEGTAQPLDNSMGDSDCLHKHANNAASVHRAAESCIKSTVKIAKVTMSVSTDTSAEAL
Chain of Cannabinoid receptor 2 (P34972 whole entry): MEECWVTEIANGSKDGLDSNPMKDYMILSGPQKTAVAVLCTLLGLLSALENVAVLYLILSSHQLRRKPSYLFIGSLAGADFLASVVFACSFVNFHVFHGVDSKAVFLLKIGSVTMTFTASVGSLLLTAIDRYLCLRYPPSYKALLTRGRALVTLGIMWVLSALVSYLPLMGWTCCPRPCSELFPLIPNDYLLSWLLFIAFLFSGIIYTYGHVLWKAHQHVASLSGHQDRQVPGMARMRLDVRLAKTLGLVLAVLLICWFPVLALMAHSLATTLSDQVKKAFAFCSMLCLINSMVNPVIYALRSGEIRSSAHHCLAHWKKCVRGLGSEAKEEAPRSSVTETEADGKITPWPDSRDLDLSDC

Q: How did the pKi [1] turn out when `CCOc1ccc(Cc2nc3cc(C(=O)N(C)CC)ccc3n2CCC(C)C)cc1` was run?
A: Its pKi is 5.50.

Q: And the pKi [2]?
A: The pKi was 8.48.

Q: What about the Ratio Ki [3] of the same compound?
A: Its Ratio Ki is 970.

From ChEMBL document CHEMBL3124825, “Benzimidazole: an emerging scaffold for analgesic and anti-inflammatory agents” (Eur J Med Chem, 2014)
